Experimental data from patent US20240383874A1, “BENZENE RING DERIVATIVE, AND COMPOSITION AND PHARMACEUTICAL USE THEREOF” (Xizang Haisco Pharmaceutical Co., Ltd., priority 2020, published 2024).
pIC50: −log10 of the molar value. Structures can show the parent of a compound that is named as a salt. Where two headings read alike, the source gives them in different places.

Test system: 22RV1 cells
Assay: Experiment 2 on inhibiting 22RV1 cell proliferation (7 days, CellTiter-Glo)
Format: cell-based
Conditions: 1% css-FBS phenol red-free medium, incubated with compound 7 days, read-out: IC50 values on proliferation inhibition of 22RV1 cells
Protocol: Prostate cancer cells 22RV1 were purchased from ATCC, the cell medium was RPMI 1640+10% FBS, and the cells were cultured in an incubator at 37° C. under 5% CO2. On day 1, the cells in an exponential phase were collected. With a 1% css-FBS phenol red-free medium, the cell suspension was adjusted to a corresponding concentration, plated at 2000 cells/well and incubated overnight. On day 2, compounds at different concentrations were added, and the plate was placed in the incubator and incubated for further 7 days. After the incubation was completed, according to operation instructions for a CellTiter-Glo kit (Promega, G7573), 50 μL of CTG solution, which was already pre-melted and equilibrated to room temperature, was added to each well, and the mixtures were uniformly mixed for 2 min using a microplate shaker. The plate was placed at room temperature for 10 min, and then fluorescence signal values were measured using a microplate reader (PHERAstar FSX). The results were processed according to formula (2), the survival rate of the compound at different concentrations was calculated, and the IC50 value of the compound with a survival rate of 50% was calculated using origin9.2 software with DoseResp function, wherein RLU compound was the readout of the treated group, and RLU control was the average value of the DMSO vehicle control group.

Cn1c(=O)n(C2CCC(=O)NC2=O)c2ccc(C3CCN(C4CCN(CC5(F)CCN(c6nccc(COc7ccc(C(C)(C)c8cc(Cl)cc(C#N)c8)cc7)n6)CC5)CC4)CC3)cc21 (stereo not shown) [Compound 90 trifluoroacetate, 3-chloro-5-(2-(4-((2-(4-((4-(1-(2,6-dioxopiperidin-3-yl)-3-methyl-2-oxo-2,3-dihydro-1H-benzo[d]imidazol-5-yl)-[1,4′-bipiperidin]-1′-yl)methyl)-4-fluoropiperidin-1-yl)pyrimidin-4-yl)methoxy)phenyl)propan-2-yl)benzonitrile]
pIC50 (Homo sapiens, 22Rv1, 168 h): 6.20

Cc1ncsc1-c1ccc([C@H](C)NC(=O)[C@@H]2C[C@@H](O)CN2C(=O)[C@@H](NC(=O)CN2CCC(N3CCC(CN4CCN(c5nccc(COc6ccc(C(C)(C)c7cc(Cl)cc(C#N)c7)cc6)n5)CC4)CC3)CC2)C(C)(C)C)cc1 [Compound 43 trifluoroacetate, (2S,4R)-1-((S)-2-(2-(4-((4-(4-((4-(2-(3-chloro-5-cyanophenyl)propan-2-yl)phenoxy)methyl)pyrimidin-2-yl)piperazin-1-yl)methyl)-[1,4′-bipiperidin]-1′-yl)acetamido)-3,3-dimethylbutanoyl)-4-hydroxy-N-((S)-1-(4-(4-methylthiazol-5-yl)phenyl)ethyl)pyrrolidine-2-carboxamide]
pIC50 (Homo sapiens, 22Rv1, 168 h): 7.03

Cn1c(=O)n(C2CCC(=O)NC2=O)c2ccc(CN3CC(N4CCC(N5CCN(c6nccc(COc7ccc(C(C)(C)c8cc(Cl)cc(C#N)c8)cc7)n6)CC5)CC4)C3)cc21 (stereo not shown) [Compound 71 trifluoroacetate, 3-chloro-5-(2-(4-((2-(4-(1-(1-((1-(2,6-dioxopiperidin-3-yl)-3-methyl-2-oxo-2,3-dihydro-1H-benzo[d]imidazol-5-yl)methyl)azetidin-3-yl)piperidin-4-yl)piperazin-1-yl)pyrimidin-4-yl)methoxy)phenyl)propan-2-yl)benzonitrile]
pIC50 (Homo sapiens, 22Rv1, 168 h): 6.09

Cn1c(=O)n(C2CCC(=O)NC2=O)c2cccc(CN3CCC4(CC3)CC(N3CCC5(CCN(c6nccc(COc7ccc(C(C)(C)c8cc(Cl)cc(C#N)c8)cc7)n6)CC5)CC3)C4)c21 (stereo not shown) [Compound 101 trifluoroacetate, 3-chloro-5-(2-(4-((2-(9-(7-((1-(2,6-dioxopiperidin-3-yl)-3-methyl-2-oxo-2,3-dihydro-1H-benzo[d]imidazol-4-yl)methyl)-7-azaspiro[3.5]nonan-2-yl)-3,9-diazaspiro[5.5]undecan-3-yl)pyrimidin-4-yl)methoxy)phenyl)propan-2-yl)benzonitrile]
pIC50 (Homo sapiens, 22Rv1, 168 h): 6.16

CC(C)(c1ccc(OCc2ccnc(N3CCN(C4CN(C5CC6(CCN(c7ccc8c(c7)C(=O)N(C7CCC(=O)NC7=O)C8=O)CC6)C5)C4)CC3)n2)cc1)c1cc(Cl)cc(C#N)c1 (stereo not shown) [Compound 53 trifluoroacetate, 3-chloro-5-(2-(4-((2-(4-(1-(7-(2-(2,6-dioxopiperidin-3-yl)-1,3-dioxoisoindolin-5-yl)-7-azaspiro[3.5]nonan-2-yl)azetidin-3-yl)piperazin-1-yl)pyrimidin-4-yl)methoxy)phenyl)propan-2-yl)benzonitrile]
pIC50 (Homo sapiens, 22Rv1, 168 h): 6.21

CC(C)(c1ccc(OCc2ccnc(N3CCN(C4CC5(CCN(C6CC7(CCN(c8ccc9c(c8)C(=O)N(C8CCC(=O)NC8=O)C9=O)CC7)C6)CC5)C4)CC3)n2)cc1)c1cc(Cl)cc(C#N)c1 (stereo not shown) [Compound 59 trifluoroacetate, 3-chloro-5-(2-(4-((2-(4-(7-(2-(2,6-dioxopiperidin-3-yl)-1,3-dioxoisoindolin-5-yl)-7,7′-diaza[2,7′-bispiro[3.5]nonan]-2′-yl)piperazin-1-yl)pyrimidin-4-yl)methoxy)phenyl)propan-2-yl)benzonitrile]
pIC50 (Homo sapiens, 22Rv1, 168 h): 6.19

Cn1c(=O)n(C2CCC(=O)NC2=O)c2cccc(CN3CC(N4CCC(N5CCC6(CC5)CN(c5nccc(COc7ccc(C(C)(C)c8cc(Cl)c(OCCCl)c(C#N)c8)cc7)n5)C6)CC4)C3)c21 (stereo not shown) [Compound 26, 3-chloro-2-(2-chloroethoxy)-5-(2-(4-((2-(7-(1-(1-((1-(2,6-dioxopiperidin-3-yl)-3-methyl-2-oxo-2,3-dihydro-1H-benzo[d]imidazol-4-yl)methyl)azetidin-3-yl)piperidin-4-yl)-2,7-diazaspiro[3.5]nonan-2-yl)pyrimidin-4-yl)methoxy)phenyl)propan-2-yl)benzonitrile]
pIC50: 6.26

CC(C)(c1ccc(OCc2ccnc(N3CC4(CCN(CC5CCN(c6ccc7c(c6)C(=O)N(C6CCC(=O)NC6=O)C7=O)CC5)CC4)C3)n2)cc1)c1cc(Cl)cc(C#N)c1 (stereo not shown) [Compound 69 trifluoroacetate, 3-chloro-5-(2-(4-((2-(7-((1-(2-(2,6-dioxopiperidin-3-yl)-1,3-dioxoisoindolin-5-yl)piperidin-4-yl)methyl)-2,7-diazaspiro[3.5]nonan-2-yl)pyrimidin-4-yl)methoxy)phenyl)propan-2-yl)benzonitrile]
pIC50 (Homo sapiens, 22Rv1, 168 h): 6.43

Cn1c(=O)n(C2CCC(=O)NC2=O)c2cccc(CN3CCC(CN4CCC(C5CCN(c6nccc(COc7ccc(C(C)(C)c8cc(Cl)cc(C#N)c8)cc7)n6)CC5)CC4)CC3)c21 (stereo not shown) [Compound 74 trifluoroacetate, 3-chloro-5-(2-(4-((2-(1′-((1-((1-(2,6-dioxopiperidin-3-yl)-3-methyl-2-oxo-2,3-dihydro-1H-benzo[d]imidazol-4-yl)methyl)piperidin-4-yl)methyl)-[4,4′-bipiperidin]-1-yl)pyrimidin-4-yl)methoxy)phenyl)propan-2-yl)benzonitrile]
pIC50 (Homo sapiens, 22Rv1, 168 h): 6.32

Cn1c(=O)n(C2CCC(=O)NC2=O)c2ccc(C3CCN(C4CC5(CCN(c6nccc(COc7ccc(C(C)(C)c8cc(Cl)cc(C#N)c8)cc7)n6)CC5)C4)CC3)cc21 (stereo not shown) [Compound 106 trifluoroacetate, 3-chloro-5-(2-(4-((2-(2-(4-(1-(2,6-dioxopiperidin-3-yl)-3-methyl-2-oxo-2,3-dihydro-1H-benzo[d]imidazol-5-yl)piperidin-1-yl)-7-azaspiro[3.5]nonan-7-yl)pyrimidin-4-yl)methoxy)phenyl)propan-2-yl)benzonitrile]
pIC50 (Homo sapiens, 22Rv1, 168 h): 6.26

CC(C)(c1ccc(OCc2ccnc(N3CCN(C4CN(CC5CN(c6ccc7c(c6)C(=O)N(C6CCC(=O)NC6=O)C7=O)C5)C4)CC3)n2)cc1)c1cc(Cl)cc(C#N)c1 (stereo not shown) [Compound 57 trifluoroacetate, 3-chloro-5-(2-(4-((2-(4-(1-((1-(2-(2,6-dioxopiperidin-3-yl)-1,3-dioxoisoindolin-5-yl)azetidin-3-yl)methyl)azetidin-3-yl)piperazin-1-yl)pyrimidin-4-yl)methoxy)phenyl)propan-2-yl)benzonitrile]
pIC50 (Homo sapiens, 22Rv1, 168 h): 6.16

COc1c(Cl)cc(C(C)(C)c2ccc(OCc3ccnc(N4CCC5(CCC(CN6CCC(c7ccc8c(c7)n(C)c(=O)n8C7CCC(=O)NC7=O)CC6)CC5)CC4)n3)cc2)cc1C#N (stereo not shown) [Compound 93 trifluoroacetate, 3-chloro-5-(2-(4-((2-(9-((4-(1-(2,6-dioxopiperidin-3-yl)-3-methyl-2-oxo-2,3-dihydro-1H-benzo[d]imidazol-5-yl)piperidin-1-yl)methyl)-3-azaspiro[5.5]undecan-3-yl)pyrimidin-4-yl)methoxy)phenyl)propan-2-yl)-2-methoxybenzonitrile]
pIC50 (Homo sapiens, 22Rv1, 168 h): 6.26

CC(C)(c1ccc(OCc2ccnc(N3CCC(N4CCC(CN5CCN(c6ccc7c(c6)C(=O)N(C6CCC(=O)NC6=O)C7=O)CC5)CC4)CC3)n2)cc1)c1cc(Cl)cc(C#N)c1 (stereo not shown) [Compound 42 trifluoroacetate, 3-chloro-5-(2-(4-((2-(4-((4-(2-(2,6-dioxopiperidin-3-yl)-1,3-dioxoisoindolin-5-yl)piperazin-1-yl)methyl)-[1,4′-bipiperidin]-1′-yl)pyrimidin-4-yl)methoxy)phenyl)propan-2-yl)benzonitrile]
pIC50 (Homo sapiens, 22Rv1, 168 h): 6.34

Cn1c(=O)n(C2CCC(=O)NC2=O)c2ccc(N3CCC(C4CCN(C5CCN(c6nccc(COc7ccc(C(C)(C)c8cc(Cl)cc(C#N)c8)cc7)n6)CC5)CC4)CC3)cc21 (stereo not shown) [Compound 104 trifluoroacetate, 3-chloro-5-(2-(4-((2-(1″-(1-(2,6-dioxopiperidin-3-yl)-3-methyl-2-oxo-2,3-dihydro-1H-benzo[d]imidazol-5-yl)-[4,1′:4′,4″-terpiperidin]-1-yl)pyrimidin-4-yl)methoxy)phenyl)propan-2-yl)benzonitrile]
pIC50 (Homo sapiens, 22Rv1, 168 h): 6.18

CC(C)(c1ccc(OCc2ccnc(N3CCN(C4CCN(CC5CCN(c6ccc7c(c6)C(=O)N(C6CCC(=O)NC6=O)C7=O)C5)C4)CC3)n2)cc1)c1cc(Cl)cc(C#N)c1 (stereo not shown) [Compound 62 trifluoroacetate, 3-chloro-5-(2-(4-((2-(4-(1-((1-(2-(2,6-dioxopiperidin-3-yl)-1,3-dioxoisoindolin-5-yl)pyrrolidin-3-yl)methyl)pyrrolidin-3-yl)piperazin-1-yl)pyrimidin-4-yl)methoxy)phenyl)propan-2-yl)benzonitrile]
pIC50 (Homo sapiens, 22Rv1, 168 h): 6.13

CC(C)(c1ccc(OCc2ccnc(N3CCC4(CC3)CCN(C3CCN(CC5CCN(c6ccc7c(c6)C(=O)N(C6CCC(=O)NC6=O)C7=O)CC5)CC3)CC4)n2)cc1)c1cc(Cl)c(OCCCl)c(C#N)c1 (stereo not shown) [Compound 27, 3-chloro-2-(2-chloroethoxy)-5-(2-(4-((2-(9-(1-((1-(2-(2,6-dioxopiperidin-3-yl)-1,3-dioxoisoindolin-5-yl)piperidin-4-yl)methyl)piperidin-4-yl)-3,9-diazaspiro[5.5]undecan-3-yl)pyrimidin-4-yl)methoxy)phenyl)propan-2-yl)benzonitrile]
pIC50: 6.18
